In brackets after ≈: the same amount, converted by molar mass.

Common to all, as to assay type: functional
For assay [1], the system named is Bacillus subtilis. In words: Antimicrobial activity against Bacillus subtilis ATCC 23857 assessed as inhibition of visible bacterial growth incubated for 18 hrs by broth microdilution method.
Assay [2] has as its system Klebsiella pneumoniae. Nature of the assay: Antimicrobial activity against Klebsiella pneumoniae ATCC 700603 assessed as inhibition of visible bacterial growth incubated for 18 hrs by broth microdilution method. In general terms: Broth dilution looks for growth in wells or tubes with falling amounts of substance.
The subject of assay [3] is Escherichia coli. Nature of the assay: Antimicrobial activity against Escherichia coli ATCC 25922 assessed as inhibition of visible bacterial growth incubated for 18 hrs by broth microdilution method.
Assay [4] has as its system Pseudomonas aeruginosa. In words: Antimicrobial activity against Pseudomonas aeruginosa ATCC 27853 assessed as inhibition of visible bacterial growth incubated for 18 hrs by broth microdilution method.
Assay [5] deals with Staphylococcus aureus. In words: Antimicrobial activity against Staphylococcus aureus ATCC 25923 assessed as inhibition of visible bacterial growth incubated for 18 hrs by broth-dilution method.
The subject of assay [6] is Staphylococcus epidermidis. Nature of the assay: Antimicrobial activity against Staphylococcus epidermidis ATCC 12228 assessed as inhibition of visible bacterial growth incubated for 18 hrs by broth-dilution method.
The subject of assay [7] is Pseudomonas aeruginosa. Nature of the assay: Resistance fold, ratio of MIC for Pseudomonas aeruginosa ATCC 27853 measured after 10th passage to MIC for Pseudomonas aeruginosa ATCC 27853 measured immediately.
In assay [8] the test system is Staphylococcus aureus. In words: Resistance fold, ratio of MIC for Staphylococcus aureus ATCC 25923 measured after 8th passage to MIC for Staphylococcus aureus ATCC 25923 measured immediately.
Assay [9] concerns Acinetobacter baumannii. In words: Antimicrobial activity against Acinetobacter baumannii ATCC 19606 assessed as inhibition of visible bacterial growth incubated for 18 hrs by broth microdilution method.
Assay [10] deals with Staphylococcus aureus. In words: Antimicrobial activity against gentamicin-resistant Staphylococcus aureus ATCC 25923 assessed as inhibition of visible bacterial growth incubated for 18 hrs by broth-dilution method.
In assay [11] the test system is Enterococcus faecalis. In words: Antimicrobial activity against Enterococcus faecalis ATCC 29212 assessed as inhibition of visible bacterial growth incubated for 18 hrs by broth-dilution method.
Assay [12] concerns Pseudomonas aeruginosa. In words: Antimicrobial activity against gentamicin-resistant Pseudomonas aeruginosa ATCC 27853 assessed as inhibition of visible bacterial growth incubated for 18 hrs by broth microdilution method.

Regarding `CN[C@@H]1[C@@H](O)[C@@H](O[C@@H]2[C@@H](O)[C@H](O[C@H]3O[C@H]([C@@H](C)NC)CC[C@H]3N)[C@@H](N)C[C@H]2N)OC[C@]1(C)O` [GENTAMICIN C1], the MIC in assay [1] was < 1 µM; in assay [2], 16 µM (≈ 7.64 µg/mL); in assay [3], 2 µM (≈ 0.955 µg/mL); in [4], < 1 µM; in assay [5] it was < 1 µM; in assay [6], < 1 µM. Moreover, the MIC in assay [9] came to 16 µM (≈ 7.64 µg/mL); in assay [10] it was 32 µM (≈ 15.3 µg/mL); in assay [11], 16 µM (≈ 7.64 µg/mL); in [12], 64 µM (≈ 30.6 µg/mL). Moreover, the “fold change (FC)” value in [7] and in assay [8] was 32 throughout.

The MIC is the smallest concentration in the dilution series that meets the test's criterion for growth inhibition.

For the origin of these results see ChEMBL document CHEMBL6153094, “Rationally designed highly amphipathic antimicrobial peptides demonstrating superior bacterial selectivity relative to the corresponding α-helix peptide” (Eur J Med Chem, 2025).
